Like-named read-outs stand apart in the source and are kept apart here. Positions of bridges follow the written chain, without caps; N, C: chain ends. Non-standard residues stand in square brackets, D forms with d. Residues, ends and D or L forms follow the SMILES beside them. 2Nal = N[C@@H](Cc1ccc2ccccc2c1)C(=O)O; d2Nal = N[C@H](Cc1ccc2ccccc2c1)C(=O)O; Cit = NC(=O)NCCC[C@H](N)C(=O)O
Legend:
CXCR4 [1] = target: T1, CXCR4 (Homo sapiens, UniProt P61073); experiment: Competitive CXCR4 binding assay (12G5 antibody probe), wild-type CXCR4 transfected CHO cells; set-up: expressed in transfected cells
T1 sequence (P61073 whole entry): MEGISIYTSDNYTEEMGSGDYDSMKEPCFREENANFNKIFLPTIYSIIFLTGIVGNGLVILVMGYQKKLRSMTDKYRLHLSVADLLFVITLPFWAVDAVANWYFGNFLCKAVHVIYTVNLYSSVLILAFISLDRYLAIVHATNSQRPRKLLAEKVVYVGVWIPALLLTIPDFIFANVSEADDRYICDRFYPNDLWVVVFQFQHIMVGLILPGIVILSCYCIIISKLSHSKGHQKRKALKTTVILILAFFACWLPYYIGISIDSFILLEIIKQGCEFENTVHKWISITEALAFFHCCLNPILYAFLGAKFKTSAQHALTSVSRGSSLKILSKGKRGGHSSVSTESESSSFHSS
Description: The CXCR4-specific antibody, 12G5 was used as a probe for the competitive CXCR4 binding assay to evaluate the binding activity of CXCR4 antagonists.
Figure 1 Competitive CXCR4 binding curves of eleven CXCR4 antagonists The CXCR4 transfected CHO cells were incubated with different concentrations of antagonists and 250 ng/ml 12G5 antibody. The CXCR4-binding 12G5 antibody was recognized by FITC-conjugated anti-IgG second antibody. The cells treated with only second antibody were used as a negative control (0%) while cells treated with both 12G5 antibody and second antibody were used as a positive control (100%). Cells treated with CXCR4 antagonists were calculated in percentage relative to the positive and negative controls. The data were averages of at least three independent experiments and shown as mean ± standard error of the mean (S.E.M.).
(§1) The procedure for the CXCR4 competitive binding experiments was published previously. Briefly, CXCR4 antibody 12G5 (250 ng/ml) was incubated with 5 × 10^5 cells and varying concentrations of unlabeled compounds in a final volume of 100 μl of assay buffer (PBS with 0.5% BSA and 0.05% NaN3) in 96-well plates for 40 min on ice, after being washed with assay buffer once. The cells were incubated with FITC-conjugated second antibody IgG for 30 min on ice, then washed with assay buffer three times. The fluorescence intensity was measured for excitation at 485 nm and emission at 535 nm using multimode plate reader (PerkinElmer). The IC50 values were calculated using graphpad Prism 7. Experiments were performed at least three times.

CXCR4 [2] = target: T1, CXCR4; experiment: SDF-1α-induced cell migration assay in SupT1 cells (transwell); format: cell-based; set-up: host or cells: SupT1 cells; details: 2 nM SDF-1α, 30 min pre-incubation, 3 h migration; for inhibition at 40 µM: SUP-T1, at 40 μM
Description: (§2) Figure 2 The inhibitory effect of the antagonists on SDF-1α-induced cell chemotaxis and calcium mobilization in SupT1 cells The antagonists and concentrations used were labeled in each lane. (A) The inhibition of cell migration by the noted antagonists. SupT1 cells pre-treated with or without CXCR4 antagonists were seeded in the upper well and cell migrated by 2 nM SDF-1α. Migrated cells without SDF-1α were used as a negative (0%) and migrated cell induced by SDF-1α as a positive control (100%). […] SupT1 cells were treated with or without CXCR4 antagonists and activated by 50 nM SDF-1α. To directly compare the inhibitory effect of the antagonists on calcium mobilization, the vehicle background and baseline were removed using GraphPad and Origin. The data were averages of at least three independent experiments.
SupT1 cells (2 × 10^6 cells per well in 75 μl) were collected and washed using assay buffer (RPMI 1640 supplemented with 0.5% BSA) and incubated with various concentrations of tested compounds for 30 min in the upper well of the transwell-96 well plates with 5.0 µm pore polycarbonate membrane insert (Corning, U.S.A.). Then, 200 μl assay buffer containing 2 nM SDF-1α was added to the lower well and cells were allowed to migrate for 3 h. Migrated cells were measured using celltiter-96 reagent.

CXCR4 [3] = target: T1, CXCR4; experiment: SDF-1α-induced calcium mobilization assay in SupT1 cells (Fluo-4); format: cell-based; set-up: host or cells: SupT1 cells; details: for inhibition at 10 µM: SUP-T1, at 10 μM, 50 nM SDF-1α, read-out: Inhibition of the calcium signal
Description: as §2
SupT1 cells were collected and washed using HHBS buffer (Hanks’ Balanced Salt solution supplemented with 20 mM HEPES) and incubated with 1 mM probenecid (Energy Chemical, China) and 4 μM Fluo-4 (AAT bioquest, U.S.A.) for 37°C for 30 min with vortex every 5 min. After being washed with HHBS, cells were suspended in PBS at 2 × 10^6/ml and seeded 200 μl cells and various concentrations of compounds per well in 96-well plate. Following 50 nM SDF-1α was added to each well, the fluorescence intensity was measured (Ex/Em = 496/516 nm) using EnSpire® multimode plate reader (PerkinElmer, U.S.A.).

CXCR4 [4] = target: T1, CXCR4; experiment: CXCR4-mediated internalization assay, CHO cells expressing CXCR4-EGFP (confocal); format: cell-based; set-up: expressed in transfected cells; details: at 100 and 10 μM; SDF-1α-induced
Description: Figure 3 The inhibitory effect of the antagonists on CXCR4 internalization CHO cells expressed CXCR4-EGFP conjugates were seeded in 96-well plate with glass bottom. Untreated cells were used as a control. Cells were pre-treated with or without CXCR4 antagonists and internalized with 50 nM SDF-1α (scale bar: 5 μm). The concentrations of the antagonists used were the same as those for the calcium mobilization assay shown above. The data shown were representative of three independent experiments.
CXCR4 and EGFP were amplified using a primer shown in Supplementary Table S1. The pcDNA3 vector was digested by restriction-enzyme EcoR1 and Apa1. CXCR4 was digested by restriction-enzyme EcoR1 and Xba1. EGFP was digested by restriction-enzyme Xba1 and Apa1. CXCR4–EGFP conjugate was constructed by ligation of three DNA fragments using T4 ligase. The vector containing CXCR4 ligated EGFP at the C-terminus was transfected and expressed in CHO cells in 100 μl DMEM medium supplemented with 2% FBS at 1 × 10^5/ml which was seeded in 96-well black plate glass bottom and incubated at 37°C overnight. Following incubation with tested compounds for 10 min, 50 nM of SDF-1α was added to each well and the internalized CXCR4 was observed using a confocal microscopy (Zeiss LSM880).

CXCR4 mutants = experiment: Mutational analysis of HM70116 binding to CXCR4 mutants compared with DV3; details: mutants F87A, W94A, Y116A, T117A, D171A, W195A, Y255A, D262N, H281A; three independent experiments with duplicate values
Text: Figure 10 The mutational analysis and molecular modeling of HM70116 interaction with CXCR4 (A) Mutational analysis of HM70116 interaction with CXCR4 binding pocket. The data was averaged from three independent experiments with duplicate values. The data were shown as mean ± standard error of the mean (S.E.M.). (B) MD simulation of HM70116-CXCR4 complex. (C) Binding mode of the N-terminus of vMIP-II in the CXCR4-binding pocket.
as §1

X4-tropic HIV = details: read-out: IC50, block of X4-tropic HIV infection via CXCR4; cited from earlier work
Text: (§3) To understand the receptor–ligand recognition mechanism involving CXCR4 and its antagonists, here in this study we conducted a series of comparative analyses of the biological activities and CXCR4 binding sites of eleven known CXCR4 antagonists, including the three mentioned above, using cell-based bioassays, CXCR4 site-directed mutagenesis and computer-aided molecular modeling. These antagonists studied here were chosen from different representative structural types including both D-peptides (i.e., HC4319, DV1, DV1 dimer, and DV3) and a representative counterpart L-peptide (i.e., V1) derived ...

CXCR4 [5] = details: read-out: Competitive binding IC50; cited from earlier work
Text: as §3

[6] = CXCR4 transfected CHO cells, 250 ng/ml 12G5, 40 min on ice, FITC second antibody, mean ± S.E.M. of at least three independent experiments, SEM, read-out: IC50 (nM), inhibition of 12G5 binding to CXCR4

SMILES: N=C(N)NCCC[C@H](NC(=O)[C@@H]1CSSC[C@H](NC(=O)[C@H](Cc2ccc3ccccc3c2)NC(=O)[C@H](CCCNC(=N)N)NC(=O)[C@@H](N)CCCNC(=N)N)C(=O)N[C@@H](Cc2ccc(O)cc2)C(=O)N[C@@H](CCC(N)=O)C(=O)N[C@@H](CCCCN)C(=O)N2CCC[C@@H]2C(=O)N2CCC[C@H]2C(=O)N[C@@H](Cc2ccc(O)cc2)C(=O)N[C@@H](CCCNC(=N)N)C(=O)N[C@@H](CCCNC(N)=O)C(=O)N1)C(=O)NCC(=O)N1CCC[C@@H]1C(=O)O [CVX15] (H-RR[2Nal]CYQK[dP]PYR[Cit]CRG[dP]-OH; disulfide 4-13)
- IC50 (CXCR4 [1]; [6]): 7.8 ± 2.2 nM
- inhibition at 0.02 µM (CXCR4 [2]; SUP-T1, at 20 nM): 65%

SMILES: CC(C)C[C@@H](N)C(=O)NCC(=O)N[C@H](C)C(=O)N[C@H](CO)C(=O)N[C@H](Cc1c[nH]c2ccccc12)C(=O)N[C@H](Cc1c[nH]cn1)C(=O)N[C@H](CCCNC(=N)N)C(=O)N1CCC[C@@H]1C(=O)N[C@H](CC(=O)O)C(=O)N[C@H](CCCCN)C(=O)N[C@H](CS)C(=O)N[C@H](CS)C(=O)N[C@H](CC(C)C)C(=O)NCC(=O)N[C@H](Cc1ccc(O)cc1)C(=O)N[C@H](CCC(N)=O)C(=O)N[C@H](CCCCN)C(=O)N[C@H](CCCNC(=N)N)C(=O)N1CCC[C@@H]1C(=O)N[C@H](CC(C)C)C(=O)N1CCC[C@@H]1C(N)=O [DV1] (H-[dL]G[dA][dS][dW][dH][dR][dP][dD][dK][dC][dC][dL]G[dY][dQ][dK][dR][dP][dL][dP]-NH2)
- inhibition at 10 µM (CXCR4 [3]): 86%
- inhibition at 40 µM (CXCR4 [2]): 78%

SMILES: CC(C)C[C@@H](N)C(=O)NCC(=O)N[C@H](C)C(=O)N[C@H](CO)C(=O)N[C@H](Cc1c[nH]c2ccccc12)C(=O)N[C@H](Cc1c[nH]cn1)C(=O)N[C@H](CCCNC(=N)N)C(=O)N1CCC[C@@H]1C(=O)N[C@H](CC(=O)O)C(=O)N[C@H](CCCCN)C(=O)O [DV3] (H-[dL]G[dA][dS][dW][dH][dR][dP][dD][dK]-OH)
- inhibition at 10 µM (CXCR4 [3]): ~55%
- inhibition at 40 µM (CXCR4 [2]): 13%

SMILES: CC(C)C[C@@H](N)C(=O)NCC(=O)N[C@H](C)C(=O)N[C@H](CO)C(=O)N[C@H](Cc1c[nH]c2ccccc12)C(=O)N[C@H](Cc1c[nH]cn1)C(=O)N[C@H](CCCNC(=N)N)C(=O)N1CCC[C@@H]1C(=O)N[C@H](CC(=O)O)C(=O)N[C@H](CCCCN)C(=O)N[C@H](CCCNC(=N)N)C(=O)N[C@H](CCCNC(=N)N)C(=O)O [HM12] (H-[dL]G[dA][dS][dW][dH][dR][dP][dD][dK][dR][dR]-OH)
- IC50 (CXCR4 [1]; SEM): 544 ± 75 nM

SMILES: CC(C)C[C@@H](NC(=O)[C@@H](CCCNC(=N)N)NC(=O)[C@H](N)CCCCN)C(=O)NCC(=O)N[C@H](C)C(=O)N[C@H](CO)C(=O)N[C@H](Cc1c[nH]c2ccccc12)C(=O)N[C@H](Cc1c[nH]cn1)C(=O)N[C@H](CCCNC(=N)N)C(=O)N1CCC[C@@H]1C(=O)N[C@H](CC(=O)O)C(=O)N[C@H](CCCCN)C(=O)O [HM60303] (H-[dK][dR][dL]G[dA][dS][dW][dH][dR][dP][dD][dK]-OH; N-terminus and C-terminus assumed)
- IC50 (CXCR4 [1]): > 50000 nM

SMILES: CC(C)C[C@@H](N)C(=O)NCC(=O)N[C@H](C)C(=O)N[C@H](CO)C(=O)N[C@H](Cc1c[nH]c2ccccc12)C(=O)N[C@H](Cc1c[nH]cn1)C(=O)N[C@H](CCCNC(=N)N)C(=O)N1CCC[C@@H]1C(=O)N[C@H](CC(=O)O)C(=O)N[C@H](CCCCN)C(=O)N[C@H](CCCNC(=N)N)C(=O)O [HM60323] (H-[dL]G[dA][dS][dW][dH][dR][dP][dD][dK][dR]-OH)
- IC50 (CXCR4 [1]; SEM): 707 ± 143 nM

SMILES: CC(C)C[C@@H](N)C(=O)NCC(=O)N[C@H](C)C(=O)N[C@H](CO)C(=O)N[C@H](Cc1c[nH]c2ccccc12)C(=O)N[C@H](Cc1c[nH]cn1)C(=O)N[C@H](CCCNC(=N)N)C(=O)N1CCC[C@@H]1C(=O)N[C@H](Cc1ccc2ccccc2c1)C(=O)N[C@H](CCCNC(=N)N)C(=O)N[C@H](CCCNC(=N)N)C(=O)O [HM70116] (H-[dL]G[dA][dS][dW][dH][dR][dP][d2Nal][dR][dR]-OH; N-terminus and C-terminus assumed)
- Inhibition of CXCR4 internalization (in words) (CXCR4 [4]): effectively prevented CXCR4 internalization
- Reduction in binding to CXCR4 mutants relative to DV3 (in words) (CXCR4 mutants): greater than DV3
- Inhibition of intracellular calcium mobilization (in words) (CXCR4 [3]; 1 μM pretreatment, SDF-1α-induced): potently inhibited

SMILES: CC1(C)CN2C(CSC(=NC3CCCCC3)NC3CCCCC3)=CSC2=N1 [IT1t]
- IC50 (X4-tropic HIV): 7 nM

SMILES: CC(C)C[C@H](NC(=O)[C@H](CS)NC(=O)[C@H](CS)NC(=O)[C@H](CCCCN)NC(=O)[C@H](CC(=O)O)NC(=O)[C@@H]1CCCN1C(=O)[C@H](CCCNC(=N)N)NC(=O)[C@H](Cc1c[nH]cn1)NC(=O)[C@H](Cc1c[nH]c2ccccc12)NC(=O)[C@H](CO)NC(=O)[C@H](C)NC(=O)CNC(=O)[C@@H](N)CC(C)C)C(=O)NCC(=O)N[C@@H](Cc1ccc(O)cc1)C(=O)N[C@@H](CCC(N)=O)C(=O)N[C@@H](CCCCN)C(=O)N[C@@H](CCCNC(=N)N)C(=O)N1CCC[C@H]1C(=O)N[C@@H](CC(C)C)C(=O)N1CCC[C@H]1C(=O)O [V1] (H-LGASWHRPDKCCLGYQKRPLP-OH)
- IC50 (CXCR4 [1]; [6]): 2630 ± 891 nM
- inhibition at 40 µM (CXCR4 [2]): 68%
